# Measurements as given in US6878727B2 (Agouron Pharmaceuticals, Inc., priority 2002, dated 2005).
# Biological target: T1, HCV polymerase (Hepatitis C virus genotype 1b, UniProt P26663)
# T1 construct: 2.5 pmoles (0.15 μg) HCV polymerase protein in a final volume of 75 μL
# Experiment: HCV Polymerase Inhibition Assay
# Type: biochemical
# Conditions: @ 50 μM compound; given where it was impractical to calculate an IC50
# Method: HCV Polymerase Inhibition Assay
# The above-described compounds were tested for activity with HCV polymerase. Recombinant HCV polymerase was tested for its ability to perform primer/template-directed transcription in assays that contained 30 mM tris-HCl pH 7.2, 10 mM MgCl2, 20 mM NaCl, 1 mM Dithiothreitol (DTT), 0.05% Tween-20, 1% glycerol, 5 pmoles biotin-dG12 (primer), 0.5 pmoles poly(rC)300 (template), 1 μM GTP, 0.1-0.3 uCi α-^32P-GTP, and 2.5 pmoles (0.15 μg) HCV polymerase protein in a final volume of 75 μL. Reactions were initiated by addition of enzyme and incubated 30 minutes at 30° C. Reactions were stopped by addition of 33 mM EDTA, and polynucleotide products were collected by filtration through Diethylaminoethyl (DE) Filtermat papers (Wallac). Unincorporated triphosphate was removed by washing the filters with 5% dibasic sodium phosphate. The filters were counted in a Packard Tri-Lux Microbeta scintillation counter (Packard Bioscience, Meriden, Conn.). Compounds to be tested were added at various concentrations, e.g., 1 μm to 50 μm, from stocks in 10% DMSO-water (final DMSO is 1% in reaction).
# IC50 values were estimated from the primary cpm data (collected in triplicate) using the formula: cpm (I)=cpm (no inhibitor)(1−([I]/([I]+IC50))). An IC50 value represents the concentration (in μM) of a compound that provides 50% inhibition of polymerase-directed transcription in the above assay. A percent inhibition value is expressed for a compound where it was impractical to calculate an IC50 value with available data. If the IC50 estimated by the above equation was less than 200 nM, it was recalculated using the following equation, which takes into account the enzyme concentration (30 nM) in the assay: cpm(I)=cpm(no inhibitor)(1−((((I+IC50+30e−9)−sqrt(((I+IC50+30e−9)^2)−4×30e−9×1)))/((2) (30e−9))). Curve fitting was performed using the program KaleidaGraph (Synergy Software, Reading, Pa.).
# T1 sequence (P26663 2420-3010): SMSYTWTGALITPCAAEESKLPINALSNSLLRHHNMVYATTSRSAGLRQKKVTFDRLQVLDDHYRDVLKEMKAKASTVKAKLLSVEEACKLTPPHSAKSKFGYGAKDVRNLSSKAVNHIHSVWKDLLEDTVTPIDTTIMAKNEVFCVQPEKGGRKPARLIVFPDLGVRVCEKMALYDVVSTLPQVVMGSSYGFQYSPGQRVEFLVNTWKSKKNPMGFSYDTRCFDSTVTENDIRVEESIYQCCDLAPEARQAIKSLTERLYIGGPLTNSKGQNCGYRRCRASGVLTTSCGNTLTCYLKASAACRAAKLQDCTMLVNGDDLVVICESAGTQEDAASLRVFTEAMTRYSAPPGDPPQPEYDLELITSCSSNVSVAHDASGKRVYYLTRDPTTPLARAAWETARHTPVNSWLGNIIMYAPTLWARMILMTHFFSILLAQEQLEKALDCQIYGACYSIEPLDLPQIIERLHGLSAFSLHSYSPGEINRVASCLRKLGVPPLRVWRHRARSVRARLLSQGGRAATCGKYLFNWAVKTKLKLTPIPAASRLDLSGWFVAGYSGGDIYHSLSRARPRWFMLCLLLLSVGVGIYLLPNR
row,SMILES,inhibition at 50 µM [%]
1,"CCOC1=CC(=O)OC(CCC#Cc2cccc(O)c2)(C2CCCC2)C1 (centres unmarked) [Example 15, 6-cyclopentyl-4-ethoxy-6-[4-(3-hydroxy-phenyl)-but-3-ynyl]-5,6-dihydro-pyran-2-one]",27

# Same assay, conditions: recombinant HCV polymerase, primer/template-directed transcription (biotin-dG12/poly(rC)300), 30 minutes at 30° C.
row,SMILES,IC50 [µM]
1,"COc1ccc(C#CC2(C3CCCC3)CC(=O)CC(=O)O2)cc1 (centres unmarked) [Example 1, 6-cyclopentyl-6-[(4-methoxyphenyl)ethynyl]dihydro-2H-pyran-2,4(3H)-dione]",12
2,"O=C1CC(=O)OC(C#Cc2nccs2)(C2CCCC2)C1 (centres unmarked) [Example 2, Cyclopentyl-6-(1,3-thiazol-2-ylethynyl)dihydro-2H-pyran-2,4(3H)-dione]",2.1
3,CC(C)c1cccc(C#CC2(C3CCCC3)CC(=O)CC(=O)O2)c1 (centres unmarked) [Example 3],8.5
4,COC(=O)Cc1ccc(C#CC2(C3CCCC3)CC(=O)CC(=O)O2)cc1 (centres unmarked) [Example 4],64.6
5,"C#CCCC1(C2CCCC2)CC(=O)CC(=O)O1 (centres unmarked) [Example 5, 6-but-3-ynyl-6-cyclopentyl-dihydro-pyran-2,4-dione]",74
6,"O=C1CC(=O)OC(CCC#Cc2ccccc2)(C2CCCC2)C1 (centres unmarked) [Example 6, 6-cyclopentyl-6-(4-phenyl-but-3-ynyl)-dihydro-pyran-2,4-dione]",8.29
7,"COc1cccc(C#CCCC2(C3CCCC3)CC(=O)CC(=O)O2)c1 (centres unmarked) [Example 7, 6-Cyclopentyl-6-[4-(3-methoxy-phenyl)-but-3-ynyl]-dihydro-pyran-2,4-dione]",12.1
8,"O=C1CC(=O)OC(CCC#Cc2ccc3scnc3c2)(C2CCCC2)C1 (centres unmarked) [Example 8, 6-(4-Benzothiazol-5-yl-but-3-ynyl)-6-cyclopentyl-dihydro-pyran-2,4-dione]",4.5
9,"O=C1CC(=O)OC(CCC#Cc2ccc3c(c2)OCCO3)(C2CCCC2)C1 (centres unmarked) [Example 9, 6-Cyclopentyl-6-[4-(2,3-dihydro-benzo[1,4]dioxin-6-yl)-but-3-ynyl]-dihydro-pyran-2,4-dione]",11.7
10,"O=C1CC(=O)OC(CCC#Cc2ccc3c(c2)OCO3)(C2CCCC2)C1 (centres unmarked) [Example 10, 6-(4-Benzo[1,3]dioxol-5-yl-but-3-ynyl)-6-cyclopentyl-dihydro-pyran-2,4-dione]",10.7
11,"CC(=O)Nc1ccc(C#CCCC2(C3CCCC3)CC(=O)CC(=O)O2)cn1 (centres unmarked) [Example 11, N-{5-[4-(2-Cyclopentyl-4,6-dioxo-tetrahydro-pyran-2-yl)-but-1-ynyl]-pyridin-2-yl}-acetamide]",67
12,"COC(=O)Cc1ccc(C#CCCC2(C3CCCC3)CC(=O)CC(=O)O2)cc1 (centres unmarked) [Example 12, {4-[4-(2-cyclopentyl-4,6-dioxo-tetrahydro-pyran-2-yl)-but-1-ynyl]-phenyl}-acetic acid methyl ester]",10.2
13,"O=C1CC(=O)OC(CCC#Cc2cccc(O)c2)(C2CCCC2)C1 (centres unmarked) [Example 13, 6-Cyclopentyl-6-[4-(3-hydroxy-phenyl)-but-3-ynyl]-dihydro-pyran-2,4-dione]",4.5
14,"O=C1CC(=O)OC(CCC#Cc2ccc3ocnc3c2)(C2CCCC2)C1 (centres unmarked) [Example 14, 6-(4-benzooxazol-5-yl-but-3-ynyl)-6-cyclopentyl-dihydro-pyran-2,4-dione]",5.8
15,"C#CCCC1(C2CCCC2)CC(=O)C(Sc2ccccc2)C(=O)O1 (centres unmarked) [Example 16, 6-But-3-ynyl-6-cyclopentyl-3-phenylsulfanyl-dihydro-pyran-2,4-dione]",80
16,"O=C1CC(CCC#Cc2cccc(O)c2)(C2CCCC2)OC(=O)C1Sc1ccccc1 (centres unmarked) [Example 17, 6-Cyclopentyl-6-[4-(3-hydroxy-phenyl)-but-3-ynyl]-3-phenylsulfanyl-dihydro-pyran-2,4-dione]",7.6
